According to patent publication USRE46095E1, “Herbicidal compositions” (BAYER CROPSCIENCE AG, priority 2008, dated 2016):
Counter-ions that a name gives are not always drawn.

Legend:
Type in all cases: in vivo
Geranium dissectum = assay: Pre-emergence herbicidal action, pot trial/greenhouse (Example 5.3, Table 6); details: 672 h, read-out: Herbicidal action [%] against Geranium dissectum; for pest or weed control at 50 g/ha: 50 g of AS/ha
Source text: (§1) Seeds or rhizome pieces of monocotyledonous and dicotyledonous harmful plants are placed in sandy loam in pots and covered with soil. The compositions, formulated as concentrated aqueous solutions, wettable powders or emulsion concentrates, are then applied to the surface of the covering soil as an aqueous solution, suspension or emulsion at an application rate of 300 to 800I of water/ha (converted) in a variety of dosages. After the treatment, the pots are placed in a green-house and kept under good growth conditions for the weeds. Visual scoring of plant or emergence damage is carried out after the test plants have emerged after an experimental period of 3 to 4 weeks in comparison with untreated controls.
(§2) The herbicidal efficacy of the active compounds or active compound mixtures was scored visually by comparing the treated pots (soil) with untreated controls. The damage and development of all above-ground plant parts was recorded. Scoring was done on a percentage scale (example values: 100% action=all plants dead or not emerged; 50% action=50% of the plants and green plant parts dead or not emerged; 0% action=no discernible action=like control plot). The score figures of in any case 2 repetitions (pots) were averaged.
(§3) When the data observed already exceed the formal total of the data in the experiments with individual applications, they likewise exceed the expected value according to Colby, which is calculated using the formula below and is likewise regarded as an indication of synergism (cf. S. R. Colby; in Weeds 15 (1967) pp. 20 to 22): E=A+B−(A·B/100)
(§4) In this formula: • A=action of active compound (A) in % at an application rate of a g of AS/ha; • B=action of active compound (B) in % at an application rate of b g of AS/ha; • E=expected value of the action of the combination (A)+(B) in % at the combined application rate a+b g of AS/ha.
(§5) The following abbreviations are used in the description and the tables below: • g of AS/ha=grams of active substance (=100% active compound) per hectare; • the total of the activities of the individual applications is given as E^A; • the expected values according to Colby are in each case given as E^C; Example 5.1
(§6) Certain combinations were tested for their herbicidal activity in accordance with the general example 1 (pre-emergence method).

Erodium cicutarium = assay: Pre-emergence herbicidal action, pot trials/greenhouse (Example 5.2, Table 5); details: evaluation 28 days after treatment
Source text: as §1, §2, §3, §4, §5, §6

Ipomoea hederifolia = assay: Pre-emergence herbicidal action, pot trials/greenhouse (Example 5.1, Table 4); details: evaluation 27 days after treatment
Source text: as §1, §2, §3, §4, §5, §6

[1] = pot trial/greenhouse, evaluation 28 days after treatment

COc1cc(OC)nc(NC(=O)NS(=O)(=O)c2ncccc2OCC(F)(F)F)n1 [(B2.2.2), 1-(4,6-dimethoxypyrimidin-2-yl)-3-[3-(2,2,2-trifluoroethoxy)-2-pyridylsulfonyl]urea sodium salt]
pest or weed control at 25 g/ha (Geranium dissectum): 45%

Nc1cc(Cl)nc(C(=O)O)c1Cl [(B2.4.1), 4-amino-3,6-dichloropyridine-2-carboxylic acid]
pest or weed control at 75 g/ha (Geranium dissectum; 75 g of AS/ha, pot trial/greenhouse, evaluation 28 days after treatment): 50%

CS(=O)(=O)c1ccc(C(=O)C2C(=O)CCCC2=O)c(Cl)c1COCC(F)(F)F [(B1.2.1), 2-{2-chloro-4-mesyl-3-[(2,2,2-trifluoroethoxy)methyl]benzoyl}cyclohexane-1,3-dione]
Herbicidal action [%] against Erodium cicutarium (Erodium cicutarium; 50 g of AS/ha): 30%

CCOC(=O)COc1ncccc1Oc1cc(-n2c(=O)cc(C(F)(F)F)n(C)c2=O)c(F)cc1Cl [(B1.3), ethyl [[3-[2-chloro-5-[3,6-dihydro-3-methyl-2,6-dioxo-4-(trifluoromethyl)-1(2H)-pyrimidinyl]-4-fluorophenoxy]-2-pyridinyl]oxy]acetate]
Herbicidal action [%] against Erodium cicutarium (Erodium cicutarium; 15 g of AS/ha): 65%

CC(C)N(C)S(=O)(=O)NC(=O)c1cc(-n2c(=O)cc(C(F)(F)F)n(C)c2=O)c(F)cc1Cl [(B2.3.1), 2-chloro-5-[3,6-dihydro-3-methyl-2,6-dioxo-4-(trifluoromethyl)-1 (2H)-pyrimidinyl]-4-fluoro-N-[[methyl(1-methylethyl)amino]sulfonyl]benzamide]
pest or weed control at 50 g/ha (Geranium dissectum; [1]): 65%

COC(=O)c1csc(C)c1S(=O)(=O)NC(=O)n1nc(OC)n(C)c1=O [(B1.1.2), methyl 4-[(4,5-dihydro-3-methoxy-4-methyl-5-oxo-1H-1,2,4-triazol-1-yl)carbonylsulfamoyl]-5-methylthiophene-3-carboxylate]
Herbicidal action [%] against Ipomoea hederifolia (Ipomoea hederifolia; 0.5 g of AS/ha): 5%
Herbicidal action [%] against Ipomoea hederifolia (Ipomoea hederifolia; 2.0 g of AS/ha): 50%

Cn1nc(C(F)(F)F)c(CS(=O)(=O)C2=NOC(C)(C)C2)c1OC(F)F [(B3.1), 3-[5-(difluoromethoxy)-1-methyl-3-(trifluoromethyl)pyrazol-4-ylmethylsulfonyl]-4,5-dihydro-5,5-dimethyl-1,2-oxazole]
pest or weed control at 50 g/ha (Geranium dissectum; [1]): 50%

COCCOCc1nc(C(F)(F)F)ccc1C(=O)C1=C(O)C2CCC(C2)C1=O (stereo not shown) [(B1.6.1), 4-hydroxy-3-[[2-[(2-methoxyethoxy)methyl]-6-trifluoromethyl-3-pyridinyl]carbonyl]-bicyclo[3.2.1]oct-3-en-2-one]
Herbicidal action [%] against Erodium cicutarium (Erodium cicutarium; 30 g of AS/ha): 55%

Cc1ccc2c(c1)[C@H](Nc1nc(N)nc([C@@H](C)F)n1)[C@@H](C)C2 [(A21), 2-amino-4-[(1R,2S)-2,6-dimethyl-indan-1-ylamino]-6-[(1R)-1-fluoroethyl]-1,3,5-triazine]
Herbicidal action [%] against Ipomoea hederifolia (Ipomoea hederifolia; 0.2 g of AS/ha): 0%
Herbicidal action [%] against Ipomoea hederifolia (Ipomoea hederifolia; 0.5 g of AS/ha): 45%
Herbicidal action [%] against Erodium cicutarium (Erodium cicutarium; 0.2 g of AS/ha): 0%
Herbicidal action [%] against Erodium cicutarium (Erodium cicutarium; 0.8 g of AS/ha): 25%
pest or weed control at 0.3 g/ha (Geranium dissectum; 0.3 g of AS/ha, pot trial/greenhouse, evaluation 28 days after treatment): 5%
pest or weed control at 1.2 g/ha (Geranium dissectum; 1.2 g of AS/ha, pot trial/greenhouse, evaluation 28 days after treatment): 20%

COc1cc(OC)n2nc(NS(=O)(=O)c3c(C(F)(F)F)ccnc3OC)nc2n1 [(B1.4.1), N-(5,7-dimethoxy[1,2,4]triazolo[1,5-a]pyrimidin-2-yl)-2-methoxy-4-(trifluoromethyl)pyridine-3-sulfonamide]
Herbicidal action [%] against Erodium cicutarium (Erodium cicutarium; 5 g of AS/ha): 50%

CCOC1Oc2ccc(OS(C)(=O)=O)cc2C1(C)C (racemic) [(B2.5), (RS)—O-(2-ethoxy-2,3-dihydro-3,3-dimethylbenzofuran-5-yl)methanesulfonate]
pest or weed control at 300 g/ha (Geranium dissectum; 300 g of AS/ha, pot trial/greenhouse, evaluation 28 days after treatment): 35%

Cc1nn(C)c(O)c1C(=O)c1ccc(C(F)(F)F)cc1S(C)(=O)=O [(B2.1.1), (5-hydroxy-1,3-dimethyl-1H-pyrazol-4-yl)-[2-(methylsulfonyl)-4-(trifluoromethyl)-phenyl]methanone]
pest or weed control at 30 g/ha (Geranium dissectum; 30 g of AS/ha, pot trial/greenhouse, evaluation 28 days after treatment): 20%

Nc1nc(C2CC2)nc(C(=O)O)c1Cl [(B2.6.1), 6-amino-5-chloro-2-cyclopropylpyrimidine-4-carboxylic acid]
pest or weed control at 100 g/ha (Geranium dissectum; 100 g of AS/ha, pot trial/greenhouse, evaluation 28 days after treatment): 65%
